Results reported in ChEMBL document CHEMBL1151902, “Discovery and SAR of cinnolines/quinolines as liver X receptor (LXR) agonists with binding selectivity for LXRbeta” (Bioorg Med Chem, 2009).
In brackets after ≈: the same amount, converted by molar mass.

Legend:
[1] = Metabolic stability in mouse liver microsomes assessed as half life; format: ADME, Microsome
[2] = Aqueous solubility of the compound; format: physicochemical; conditions: buffer

half-life [1]: < 5 min | solubility [2]: 2 µg/mL (≈ 3.82 µM)
SMILES: Cn1ccc2cccc(COc3cccc(-c4c(Cc5ccccc5)nnc5c(C(F)(F)F)cccc45)c3)c21
